A word on the IC50: it is the concentration needed to halve the response being measured.

The values below come from patent US12319655B2, “RAF kinase inhibitors and methods of use thereof” (Deciphera Pharmaceuticals, LLC, priority 2021, dated 2025).

Structures are written as SMILES. Where only a bound is given, the exact number is not on record here.

For assay [1], the target named is B-Raf (V600E) (SEQ. ID NO: 4) kinase (Homo sapiens (Human), UniProt P15056, V600E). In words: Biochemical Assay for B-Raf (V600E) (1). The note with it: Table J, BRAF V600E, assay version (1); read-out: BRAF VE (1) IC50. The method, boiled down: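 Serially diluted compounds tested against 0.03 nM enzyme with 30.1 nM MEK substrate and 1 mM ATP (Tris pH 7.5, 15 mM MgCl2), ATP use coupled to NADH loss via PK/LDH. A340 monitored continuously 6 h, 30 °C; IC50 fitted (four-parameter) from the 3–4 h rate versus no-compound and known-inhibitor controls.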
Sequence of B-Raf (V600E) (SEQ. ID NO: 4) kinase (P15056 416-766 V600E): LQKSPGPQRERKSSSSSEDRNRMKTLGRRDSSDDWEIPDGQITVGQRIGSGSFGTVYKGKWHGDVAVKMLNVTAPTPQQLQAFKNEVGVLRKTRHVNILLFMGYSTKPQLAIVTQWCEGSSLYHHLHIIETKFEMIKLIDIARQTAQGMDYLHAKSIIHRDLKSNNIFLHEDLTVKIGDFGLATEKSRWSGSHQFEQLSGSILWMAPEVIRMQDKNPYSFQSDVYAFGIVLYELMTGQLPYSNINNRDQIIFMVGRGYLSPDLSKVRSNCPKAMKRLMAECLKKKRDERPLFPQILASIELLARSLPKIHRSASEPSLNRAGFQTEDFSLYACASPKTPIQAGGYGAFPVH

Another assay deals with WM3928 cells. Briefly: WM3928 Cell Proliferation Assay (1). In kind it is cell-based. The essentials:
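IC50 was derived from resazurin fluorescence (ex 540, em 600 nm) after a 6–7 h dye incubation. Before that, cells had 67–72 h of compound exposure at 37 °C, 5% CO2.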

Assay [2] deals with C-Raf kinase (SEQ. ID NO: 3) (Homo sapiens (Human), UniProt P04049, Y340D/Y341D). Briefly: Biochemical Assay for C-Raf (1). The note with it: Table J, assay version (1); read-out: CRAF (1) IC50. The method, boiled down: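 IC50 values come from a four-parameter fit of percent inhibition, using the reaction rate over 4–5 h of a 6 h continuous 340 nm read at 30 °C. The enzyme mix was C-Raf 0.43 nM, MEK substrate 30.1 nM and ATP 1 mM, in a PK/LDH NADH-coupled format in Tris pH 7.5 with 1% DMSO.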
Sequence of C-Raf kinase (SEQ. ID NO: 3) (P04049 307-648 Y340D/Y341D): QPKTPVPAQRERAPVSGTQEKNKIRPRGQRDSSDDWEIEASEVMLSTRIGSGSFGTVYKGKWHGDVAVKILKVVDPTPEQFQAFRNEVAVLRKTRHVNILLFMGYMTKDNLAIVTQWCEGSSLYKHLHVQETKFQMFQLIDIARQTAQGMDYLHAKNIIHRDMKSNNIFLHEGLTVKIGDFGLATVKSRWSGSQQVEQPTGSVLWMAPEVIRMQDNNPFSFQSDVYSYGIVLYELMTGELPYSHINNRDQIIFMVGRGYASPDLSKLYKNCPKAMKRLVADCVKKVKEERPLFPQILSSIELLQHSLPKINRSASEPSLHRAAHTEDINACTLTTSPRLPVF

The target of assay [3] is B-Raf kinase (SEQ. ID NO: 2) (Homo sapiens (Human), UniProt P15056). Briefly: Biochemical Assay for B-Raf (1). The note with it: Table J, assay version (1); read-out: BRAF (1) IC50. The essentials:
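IC50 derived by four-parameter sigmoidal fit of percent inhibition, normalised to uninhibited and reference-inhibitor controls, using reaction rates over 4–5 h. Coupled spectrophotometric readout (NADH loss at 340 nm, 6 h, 30° C.); 1 mM ATP, 30.1 nM MEK, 0.13 nM B-Raf, pH 7.5 Tris buffer, 1% DMSO.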

Sequence of B-Raf kinase (SEQ. ID NO: 2) (P15056 416-766): as the sequence (P15056 416-766 V600E) above, with E185V counted along it

Turning to `Cc1ccc(NC(=O)c2cnnc(C3CC3)c2)cc1-c1ccnc(-c2ccnc(NC(=O)C3CC3)c2)n1` [Example 250], the IC50 is ≤ 100 nM in assay [1], 100 to 500 nM with WM3928 cells, ≤ 100 nM in assay [2] and ≤ 100 nM in assay [3].

With `Cc1ncc(NC(=O)c2ccnc(C(C)(C)C#N)c2)cc1-c1ccnc(-c2ccnc(NC(=O)C3CC3)c2)n1` [Example 193], the IC50 (in assay [1]; in the assay on WM3928 cells; in assay [2]; in assay [3]) was ≤ 100 nM throughout.

`Cc1ccc(NC(=O)c2cc(CN(C)C)cc(C(F)(F)F)c2)cc1-c1cccc(-c2cc(NC(=O)C3CC3)ncn2)c1` [Example 202]: the IC50 (in assay [1]; in the assay on WM3928 cells; in assay [2]; in assay [3]) was ≤ 100 nM each time.

As to `CNC(=O)c1cc(-c2cc(-c3cc(NC(=O)c4ccnc(C(C)(C)F)c4)ccc3C)ccn2)ccn1` [Example 214], the IC50 in assay [1] was ≤ 100 nM; in the assay with WM3928 cells, ≤ 100 nM; in assay [2], ≤ 100 nM; in assay [3] it was 100 to 500 nM.

As for `COCCNc1cc(-c2nccc(-c3cc(NC(=O)c4ccnc(C(C)(C)C#N)c4)ccc3C)n2)ccn1` [Example 221], the IC50 in assay [1] is ≤ 100 nM; with WM3928 cells it was 500 to 1000 nM; in assay [2] it was ≤ 100 nM; in assay [3], ≤ 100 nM.

Regarding `CNC(=O)c1cc(-c2cccc(-c3cc(NC(=O)c4ccnc(C(C)(C)C#N)c4)cnc3C)c2)ccn1` [Example 192], the 50% inhibitory concentration (IC50) is ≤ 100 nM in assay [1], ≤ 100 nM with WM3928 cells, ≤ 100 nM in assay [2] and 100 to 500 nM in assay [3].

As to `Cc1ccc(NC(=O)c2ccnc(C(C)(C)C#N)c2)cc1-c1cccc(-c2cc(NC(=O)C3(C)CC3)ncn2)c1` [Example 197], the IC50 in assay [1] is ≤ 100 nM; in the assay on WM3928 cells, ≤ 100 nM; in assay [2], 100 to 500 nM; in assay [3], 500 to 1000 nM.

Turning to `CNC(=O)c1cc(-c2cncc(-c3cc(NC(=O)c4ccnc(C(C)(C)C#N)c4)ccc3C)c2)ncn1` [Example 235], the IC50 in assay [1] is ≤ 100 nM; with WM3928 cells it was ≤ 100 nM; in assay [2], ≤ 100 nM; in assay [3], 100 to 500 nM.

As for `Cc1ccc(NC(=O)c2ccnc(C3CC3)c2)cc1-c1ccnc(-c2ccnc(NC(=O)C3CC3)c2)n1` [Example 229], the IC50 (in assay [1]; with WM3928 cells; in assay [2]; in assay [3]) was ≤ 100 nM throughout.

Take `Cc1ncc(NC(=O)c2ccnc(C(C)(C)C#N)c2)cc1-c1cccc(-c2ccnc(NC(=O)C3CC3)c2)c1` [Example 222]: the half-maximal inhibitory concentration (IC50) (in assay [1]; with WM3928 cells; in assay [2]; in assay [3]) was ≤ 100 nM in each case.

`Cc1ccc(NC(=O)c2ccnc(C(C)(C)C#N)c2)cc1-c1ccnc(-c2ccnc(NC(=O)C3CC3)c2)n1` [Example 257]: the IC50 (in assay [1]; with WM3928 cells; in assay [2]; in assay [3]) was ≤ 100 nM each time.

For the compound `Cc1ccc(NC(=O)c2ccnc(C(C)(C)C#N)c2)cc1-c1cccc(-c2ccnc(NC(=O)C3CC3)c2)c1` [Example 223], the IC50 (in assay [1]; in the assay on WM3928 cells; in assay [2]; in assay [3]) was ≤ 100 nM each time.

For `CNC(=O)c1cc(-c2cc(-c3cc(NC(=O)c4ccnc(C(C)(C)OC)c4)ccc3C)ccn2)ccn1` [Example 264], the IC50 in assay [1] is ≤ 100 nM; in the assay on WM3928 cells, ≤ 100 nM; in assay [2], ≤ 100 nM; in assay [3], 100 to 500 nM.

In the case of `Cc1ncc(NC(=O)c2ccnc(C(C)(C)C#N)c2)cc1-c1ccnc(-c2ccnc(NC(=O)C3CC3)c2)c1` [Example 251], the IC50 (in assay [1]; in the assay with WM3928 cells; in assay [2]; in assay [3]) was ≤ 100 nM each time.

Regarding `COC(=O)Nc1cc(-c2cccc(-c3cc(NC(=O)c4ccnc(C(C)(C)C#N)c4)cnc3C)c2)ncn1` [Example 225], the IC50 (in assay [1]; in the assay on WM3928 cells; in assay [2]; in assay [3]) was ≤ 100 nM each time.

`CNC(=O)c1cc(-c2cccc(-c3cc(NC(=O)c4ccnc(C(C)(C)C#N)c4)cnc3C)c2)cnn1` [Example 201]: the IC50 in assay [1] was ≤ 100 nM; in the assay on WM3928 cells it was 100 to 500 nM; in assay [2] it was 100 to 500 nM; in assay [3], 500 to 1000 nM.

`Cc1ccc(NC(=O)c2ccnc(C(C)(C)C#N)c2)cc1-c1cccc(-c2cc(NC(=O)C3CC3)ncn2)n1` [Example 233]: the IC50 in assay [1] is ≤ 100 nM; in the assay on WM3928 cells, 1000 to 10000 nM; in assay [2], ≤ 100 nM; in assay [3] it was 100 to 500 nM.

Turning to `CNC(=O)c1cc(-c2ccnc(-c3cc(NC(=O)c4ccnc(C(C)(C)C#N)c4)cnc3C)n2)ccn1` [Example 199], the IC50 was ≤ 100 nM in assay [1], 1000 to 10000 nM in the assay on WM3928 cells, 100 to 500 nM in assay [2] and 500 to 1000 nM in assay [3].

Consider `CNC(=O)c1cc(-c2cc(-c3cc(NC(=O)c4ccnc(C(C)(C)C#N)c4)ccc3F)ccn2)ccn1` [Example 205], for which the IC50 is ≤ 100 nM in assay [1], 100 to 500 nM in the assay with WM3928 cells, ≤ 100 nM in assay [2] and 100 to 500 nM in assay [3].

Consider `CNC(=O)c1cc(-c2ccnc(-c3cc(NC(=O)c4ccnc(C(C)(C)C#N)c4)c(F)cc3C)n2)ccn1` [Example 242], for which the IC50 in assay [1] is ≤ 100 nM; in the assay on WM3928 cells it was 100 to 500 nM; in assay [2] it was 100 to 500 nM; in assay [3] it was 100 to 500 nM.

For `Cc1ccc(NC(=O)c2ccnc(C(C)(C)C#N)c2)cc1-c1cncc(-c2cc(NC(=O)C3CC3)ncn2)c1` [Example 224], the IC50 (in assay [1]; in the assay with WM3928 cells; in assay [2]; in assay [3]) was ≤ 100 nM throughout.

Consider `Cc1cc(C(=O)Nc2cnc(C)c(-c3ccnc(-c4ccnc(NC(=O)C5CC5)c4)n3)c2)ccn1` [Example 273], for which the IC50 in assay [1] is ≤ 100 nM; with WM3928 cells, 1000 to 10000 nM; in assay [2] it was ≤ 100 nM; in assay [3] it was 100 to 500 nM.

Take `Cc1ncc(NC(=O)c2ccnc(C(C)(C)F)c2)cc1-c1cccc(-c2cc(NC(=O)C3CC3)ncn2)c1` [Example 249]: the IC50 (in assay [1]; in the assay with WM3928 cells; in assay [2]; in assay [3]) was ≤ 100 nM throughout.

Consider `Cc1ncc(NC(=O)c2cnn(C(C)(C)C)c2)cc1-c1cccc(-c2cc(NC(=O)C3CC3)ncn2)c1` [Example 279], for which the IC50 (in assay [1]; in the assay with WM3928 cells; in assay [2]; in assay [3]) was ≤ 100 nM each time.

With `Cc1ccc(NC(=O)c2ccnc(C3CC3)c2)cc1-c1cccc(-c2cc(NC(=O)C3CC3)ncn2)c1` [Example 255], the IC50 (in assay [1]; in the assay on WM3928 cells; in assay [2]; in assay [3]) was ≤ 100 nM in each case.

For the compound `Cc1ncc(NC(=O)c2ccnc(C(C)(C)C#N)c2)cc1-c1ccnc(-c2ccnc(NC(=O)C(C)(C)C#N)c2)c1` [Example 219], the IC50 in assay [1] is ≤ 100 nM; with WM3928 cells, 100 to 500 nM; in assay [2], 100 to 500 nM; in assay [3] it was 100 to 500 nM.

As to `Cc1ccc(NC(=O)c2ccnc(C(C)(C)F)c2)cc1-c1ccnc(-c2ccnc(NC(=O)C3CC3)c2)n1` [Example 186], the IC50 (in assay [1]; with WM3928 cells; in assay [2]; in assay [3]) was ≤ 100 nM in each case.

Turning to `CNC(=O)c1cc(-c2nc(-c3cc(NC(=O)c4ccnc(C(C)(C)C#N)c4)ccc3C)cc(C3CC3)n2)ccn1` [Example 196], the IC50 in assay [1] is ≤ 100 nM; in the assay on WM3928 cells it was 100 to 500 nM; in assay [2] it was 100 to 500 nM; in assay [3], 100 to 500 nM.

For the compound `Cc1ccc(NC(=O)c2cc(CN(C)C)cc(C(F)(F)F)c2)cc1-c1cncc(-c2ccnc(NC(=O)C3CC3)c2)n1` [Example 185], the IC50 (in assay [1]; with WM3928 cells; in assay [2]; in assay [3]) was ≤ 100 nM each time.

As to `COC(C)(C)c1cc(C(=O)Nc2ccc(C)c(-c3ccnc(-c4ccnc(NC(=O)C5CC5)c4)n3)c2)ccn1` [Example 190], the IC50 (in assay [1]; with WM3928 cells; in assay [2]; in assay [3]) was ≤ 100 nM in each case.

As to `COC(C)(C)c1cc(C(=O)Nc2cnc(C)c(-c3cccc(-c4cc(NC(=O)C5CC5)ncn4)c3)c2)ccn1` [Example 274], the IC50 (in assay [1]; in the assay on WM3928 cells; in assay [2]; in assay [3]) was ≤ 100 nM throughout.

With `CNC(=O)c1cc(-c2cccc(-c3cc(NC(=O)c4ccnc(C(C)(C)C#N)c4)ccc3C)c2)cnn1` [Example 191], the IC50 in assay [1] was ≤ 100 nM; in the assay with WM3928 cells it was ≤ 100 nM; in assay [2], ≤ 100 nM; in assay [3] it was 100 to 500 nM.
